From patent US11352317B2, “Rosin-based small molecular weight hydrogelator and its application” (Jiangnan University, priority 2019, dated 2022)

Assays:
[1] = Steady-state shear of comparative aqueous solutions; format: physicochemical; conditions: 5 mmol·L^−1 aqueous solution; for viscosity of the system (steady-state shear): high or low shear rates
[2] = Determination of gel behavior (vial inversion); format: physicochemical
Method: To 1 mL of deionized water, 6-dehydroabietylamide-N,N-dimethyl-hexylamine oxide was added (concentrations were 4 mmol·L^−1, 10 mmol·L^−1, 15 mmol·L^−1, 20 mmol·L^−1, and 25 mmol·L^−1, respectively). The solution was heated to 40° C. to completely dissolve the 6-dehydroabietylamide-N,N-dimethyl-hexylamine oxide, and then allowed to stand at room temperature, and the solution state was investigated.
It can be seen from the photograph of the appearance of a gel formed by 6-dehydroabietylamide-N,N-dimethyl-hexylamine oxide in FIG. 5 (concentrations from left to right were 4 mmol·L^−1, 10 mmol·L^−1, 15 mmol·L^−1, 20 mmol·L^−1, and 25 mmol·L^−1, respectively) that when the concentration of 6-dehydroabietylamide-N,N-dimethyl-hexylamine oxide was greater than 4 mmol·L^−1, the 6-dehydroabietylamide-N,N-dimethyl-hexylamine oxide can support its own weight without flowing after invertion, indicating the formed gel has excellent viscoelasticity.
In a hydrogel formed by 4 mmol·L^−1 of 6-dehydroabietylamide-N,N-dimethyl-hexylamine oxide, the critical gelling concentration of the 6-dehydroabietylamide-N,N-dimethyl-hexylamine oxide was only 0.176%. Upon conversion, on average, each gelling agent molecule can immobilize 13,889 water molecules, showing extremely high gelling efficiency.

[3] = Cryo-TEM microstructure of the gel system; format: physicochemical; conditions: 5 mmol·L^−1 hydrogel
Method: Sample preparation was carried out using an environment controlled low temperature sample preparation device Cryoplunge TM3, and the ambient temperature was fixed at 25° C. The relative humidity in the device cavity was adjusted to over 90%, about 5 μL of the sample was pipetted onto the surface of the micro-grid, and the droplets on the surface of the micro-gate were absorbed by patting the sample with the filter paper on both sides of Cp3 to obtain a very thin liquid film. The sample was then quickly inserted into liquid ethane cooled liquid nitrogen. The frozen sample was transferred to a sample rod cooled with liquid nitrogen and transferred to a transmission electron microscope for observation at an operating voltage of 120 kV. It can be seen from the in situ frozen transmission electron micrograph of a hydrogel sample formed by 5 mmol·L^−1 6-dehydroabietylamide-N,N-dimethyl-hexylamine oxide in FIG. 8 that the microscopic morphology of the hydrogel was a relatively rigid nanofiber having a cross-sectional diameter of about 10 nm and a length of more than 2 μm.
The reason was that the 6-dehydroabietylamide-N,N-dimethyl-hexylamine oxide molecule formed a left-handed helical fiber structure having a diameter of about 10 nm by molecular self-assembly. […]

[4] = Circular dichroism spectrum of gel; format: physicochemical; conditions: 5 mmol·L^−1 gel, 300-180 nm
Method: The measurement was carried out on a circular dichroism spectrometer model MOS-450. The signal was recorded at intervals of 0.1 nm within the wavelength range of 300-180 nm. Gel samples were measured using a 0.1 mm quartz sample cell.

[5] = Gel sustained-release performance test (in vitro release of embedded Rhodamine B); format: physicochemical; conditions: embedded in 20 mmol·L^−1 hydrogel, 37° C.
Method: Rhodamine B was embedded in a hydrogel formed by 20 mmol·L^−1 6-dehydroabietylamide-N,N-dimethyl-hexylamine oxide and in vitro release experiments were carried out in a constant temperature oscillating water bath at 37° C. The absorbance of the release solution was measured by an ultraviolet-visible spectrophotometer to obtain an in vitro release curve. […] It can be seen that the hydrogel formed by 6-dehydroabietylamide-N,N-dimethyl-hexylamine oxide had good sustained-release ability and can be used in the fields of drug sustained release and so on.

L929 cells = test: 3D cell incubation in hydrogel, FDA/PI staining; format: cell-based; conditions: 3D incubation in hydrogel, 24 h, 48 h and 96 h
Method: L929 cells were encapsulated in a 6-dehydroabietylamide-N,N-dimethyl-hexylamine oxide gel under sterile conditions for 3D cell incubation. The cell suspension was added into the 6-dehydroabietylamide-N,N-dimethyl-hexylamine oxide solution with a sol state, and a cell/hydrogel system was formed within 30 s, and further incubated at 37° C. for 15 min. Thereafter, 2 mL of RPMI-1640 medium containing 10% FBS fetal bovine serum and 1% penicillin/streptomycin was gently added to the incubation dish, and the cell/hydrogel system was incubated in a humidified atmosphere of 37° C. and 5% CO2. The medium was replaced after 1 h of incubation and then replaced every 12 h. After incubation for 24 h, 48 h and 96 h, the cell/hydrogel system was stained with FDA/PI and the cells were observed by a confocal laser scanning microscope. […] It can be seen that 6-dehydroabietylamide-N,N-dimethyl-hexylamine oxide hydrogel can be used as a 3D cell incubation scaffold and had potential application in cell therapy and tissue regeneration.

[6] = Determination of surface tension (ring method); format: physicochemical; conditions: aqueous, 25° C.
Method: Determination of surface tension. A series of aqueous surfactant solutions having different concentrations were prepared, and the surface tension was measured by a ring method at 25° C., and the surface tension curve was plotted.

[7] = Preparation of O/W type gel emulsion at different oil-water ratios; format: physicochemical; conditions: 20 mmol·L^−1 stabilizer, oil phase volume fraction 10% to 90%
Method: An amount of 6-dehydroabietylamide amine oxide was added to a 22 mm (d)×52 mm (h) glass vial with a total volume of 10 mL. After adding a certain amount of deionized water, the vial was heated in a water bath at 50° C. until the 6-dehydroabietylamide amine oxide was completely dissolved to obtain a transparent solution. Different volumes of oil were added to the 6-dehydroabietylamide amine oxide solution (the volume ratios of 6-dehydroabietylamide amine oxide solution to oil were 1:9, 2:8, 3:7, 4:6, 5:5, 6:4, 7:3, 8:2, and 9:1, and total volume was 4 mL), then the mixture was emulsified at 11,000 r/min using an ultraturrax homogenizer (IKA T18 basic, S18N-10G head) for 2 min. The emulsion was allowed to stand and cool at a low temperature to form a white gel emulsion.

[8] = Gel emulsion stability test; format: physicochemical; conditions: 20° C.; for Stability: gel emulsion, 0.22% stabilizer
Method: To the 0.22% solution of 6-dehydroabietylamide amine oxide, different volumes of oil were added (the volume ratios of 6-dehydroabietylamide amine oxide solution to oil were 0.2:9.8, 3:7, 5:5,7:3, and 9.9: 0.1, and total volume was 4 mL), and then the mixture was emulsified at 11,000 r/min using an ultraturrax homogenizer (IKA T18 basic, S18N-10G head) for 2 min. The emulsion was allowed to stand and cool at a low temperature to form a white gel emulsion.
The prepared gel emulsion was placed in a 20° C. incubator, and the stability of the gel emulsion was observed. When the concentration of 6-dehydroabietylamide-N,N-dimethyl-hexylamine oxide as stabilizer was 0.22% of the mass of the continuous phase, and the volume fraction of the disperse phase was in the range of 1%-98%, a gel emulsion was formed.

| water molecules immobilized per gelling agent molecule (on average) ([2]; at critical gelling concentration, upon conversion) | concentration at which gel supports its own weight without flowing after inversion ([2]; deionized water, dissolved at 40° C., stood at room temperature) | critical gelling concentration ([2]; in water, hydrogel formed by 4 mmol·L^−1, room temperature) [%] | cross-sectional diameter of nanofiber [3] | length of nanofiber [3] | chiral aggregate structure of nanofiber (CD signal) [4] | release rate of Rhodamine B ([5]; in 40 h) [%] | release rate of Rhodamine B ([5]; within 5 h) [%] | critical micelle concentration [6] [mmol/L] | γcmc (surface tension at cmc) [6] [mN·m^−1] | stability of dodecane/hydrogel emulsion [7] | stability of the gel emulsion after placing for one year ([8]; 0.22% of the mass of the continuous phase, disperse phase volume fraction 1%-98%) | SMILES | gel formation [1] | viscosity of the system (steady-state shear) [1] | viability and proliferation of L929 cells in the gel (L929 cells) | Stability ([8]; continuous phase 0.2, disperse phase 9.8) | Stability ([8]; continuous phase 3, disperse phase 7) | Stability ([8]; continuous phase 5, disperse phase 5) | Stability ([8]; continuous phase 7, disperse phase 3) | Stability ([8]; continuous phase 9.9, disperse phase 0.1) |
| --- | --- | --- | --- | --- | --- | --- | --- | --- | --- | --- | --- | --- | --- | --- | --- | --- | --- | --- | --- | --- |
| – | – | – | – | – | – | – | – | – | – | – | – | CC(C)c1ccc2c(c1)CCC1C(C)(C(=O)NCC[N+](C)(C)[O-])CCCC21C (stereo not shown) [2-dehydroabietylamide-N,N-dimethyl-ethylamine oxide] | neither 2-dehydroabietylamide-N,N-dimethyl-ethylamine oxide nor 3-dehydroabietylamide-N,N-dimethyl-propylamine oxide could form a gel | comparable to the viscosity of water | – | – | – | – | – | – |
| – | – | – | – | – | – | – | – | – | – | – | – | CC(C)c1ccc2c(c1)CCC1C(C)(C(=O)NCCC[N+](C)(C)[O-])CCCC21C (stereo not shown) [3-dehydroabietylamide-N,N-dimethyl-propylamine oxide] | neither 2-dehydroabietylamide-N,N-dimethyl-ethylamine oxide nor 3-dehydroabietylamide-N,N-dimethyl-propylamine oxide could form a gel | comparable to the viscosity of water | – | – | – | – | – | – |
| 13,889 | greater than 4 mmol·L^−1 | 0.176 | about 10 nm | more than 2 μm | left-handed helix | 76 | 28 | 0.56 | 35 | no phase separation occurs | did not undergo demulsification | CC(C)c1ccc2c(c1)CCC1C(C)(C(=O)NCCCCCC[N+](C)(C)[O-])CCCC21C (stereo not shown) [6-dehydroabietylamide-N,N-dimethyl-hexylamine oxide] | – | – | higher viability and proliferative ability | No demulsification occurs after incubation | No demulsification occurs after incubation | No demulsification occurs after incubation | No demulsification occurs after incubation | No demulsification occurs after incubation |
